Where two headings read alike, the source gives them in different places.
Key:
U87MG tumor = test: In vivo solid tumor disease model, U87MG; design: species or system mice; conditions: Mus musculus, U-87 MG, po, 20 mg/kg orally daily, read-out: Tumor Growth Inhibition (%)
Text: (§1) This test measures the capacity of compounds to inhibit solid tumor growth.
(§2) Tumor xenografts are established in the flank of female athymic CD1 mice (Charles River Inc.), by subcutaneous injection of 1×106 U87, A431 or SKLMS cells/mouse. Once established, tumors are then serially passaged s.c. in nude mice hosts. Tumor fragments from these host animals are used in subsequent compound evaluation experiments. For compound evaluation experiments female nude mice weighing approximately 20 g are implanted s.c. by surgical implantation with tumor fragments of ˜30 mg from donor tumors. When the tumors are approximately 100 mm3 in size (˜7-10 days following implantation), the animals are randomized and separated into treatment and control groups. Each group contains 6-8 tumor-bearing mice, each of which is ear-tagged and followed individually throughout the experiment.
(§3) Mice are weighed and tumor measurements are taken by calipers three times weekly, starting on Day 1. These tumor measurements are converted to tumor volume by the well-known formula (L+W/4)3 4/3π. The experiment is terminated when the control tumors reach a size of approximately 1500 mm^3. In this model, the change in mean tumor volume for a compound treated group/the change in mean tumor volume of the control group (non-treated or vehicle treated)×100 (ΔT/ΔC) is subtracted from 100 to give the percent tumor growth inhibition (% TGI) for each test compound. In addition to tumor volumes, body weight of animals is monitored twice weekly for up to 3 weeks.

SKLMS40 tumor = test: In vivo solid tumor disease model, SKLMS40; design: species or system mice; conditions: Mus musculus, po, SKLMS40, 20 mg/kg orally daily, read-out: Tumor Growth Inhibition (%)
Text: as §1, §2, §3

MKN45 tumor = test: In vivo solid tumor disease model, MKN45; design: species or system mice; conditions: Mus musculus, MKN-45, po, MKN45, 20 mg/kg orally daily, read-out: Tumor Growth Inhibition (%)
A549 tumor = test: In vivo solid tumor disease model, A549; design: species or system mice; conditions: A549, 20 mg/kg orally daily, 12 days
Panc-1 tumor = test: In vivo solid tumor disease model, Panc-1; design: species or system mice; conditions: Panc-1, 20 mg/kg orally daily, 13 days
MDAMB231 tumor = test: In vivo solid tumor disease model, MDAMB231; design: species or system mice; conditions: MDAMB231, 20 mg/kg orally daily, 13 days
H1437 tumor = test: In vivo solid tumor disease model, H1437; design: species or system mice; conditions: H1437, 15 mg/kg orally daily, 16 days
MNNG HOS tumor = test: In vivo solid tumor disease model, MNNG HOS; design: species or system mice; conditions: 20 mg/kg orally daily, 6 days
CNV progression = test: In vivo choroidal neovascularization (CNV) model, laser-induced; conditions: Brown-Norway rats, intravitreal injection 30 and/or 100 nmol/eye on Day 1 and/or Day 3 and/or Day 7, CNV area on Day 10
Text: This test measures the capacity of compounds to inhibit CNV progression. CNV is the main cause of severe vision loss in patients suffering from age-related macular degeneration (AMD).
Male Brown-Norway rats (Japan Clea Co., Ltd.) were used in these studies.
Rats were anesthetized by intraperitoneal injection of pentobarbital, and the right pupil was dilated with 0.5% tropicamide and 0.5% phenylephrine hydrochloride. The right eye received 6 laser burns between retinal vessels using a slit lamp delivery system of Green laser Photocoagulator (Nidex Inc., Japan), and microscope slide glass with Heaton™ (AMO Inc) used as a contact lens. The laser power was 100 or 200 mW for 0.1 second and spot diameter was 100 μm. At the time of laser burn, bubble production was observed, which is an indication of rupture of Bruch's membrane which is important for CNV generation.
Rats were divided into the groups based on their body weight using SAS software (SAS institute Japan, R8.1) after laser irradiation (Day 0). After animals were anesthetized, and the right pupil dilated (as above mentioned), the right eye of the animal received the compound or vehicle by intravitreal injection (5 or 10 μL/eye) at doses of 30 and/or 100 nmol/eyeon Day 1 and/or Day 3 and/or Day 7. The compounds were dissolved or suspended in CBS, PBS, or other adequate vehicles before injection.
On Day 10, the animals were anesthetized with ether, and high molecular weight fluorescein isothiocyanate (FITC)-dextran (SIGMA, 2×10^6 MW) was injected via a tail vein (20 mg/rat). About 30 min after FITC-dextran injection, animals were euthanized by ether or carbon dioxide, and the eyes were removed and fixed with 10% formaline neutral buffer solution. After over 1 hour of fixation, RPE-choroid-sclera flat mounts were obtained by removing cornea, lens and retina from the eyeballs. The flat mounts were mounted in 50% glycerol on a microscope slide, and the portion burned by laser was photographed using a fluorescence microscope (Nikon Corporation, excitation filter:465-495 nm, absorption filter:515-555 nm). The CNV area was obtained by measurement of hyper-fluorescence area observed on the photograph using Scion image.
The average CNV area of 6 burns was used as an individual value of CNV area, and the average CNV area of compound treated group was compared with that of the vehicle-treated group. […]

SKLMS tumor = test: In vivo solid tumor disease model, SKLMS; design: species or system mice; conditions: 20 mg/kg orally daily, 15 days
Text: as §1, §2
Mice are weighed and tumor measurements are taken by calipers three times weekly, starting on Day 1. These tumor measurements are converted to tumor volume by the well-known formula (L+W/4)3 4/3π. The experiment is terminated when the control tumors reach a size of approximately 1500 mm^3. […] In addition to tumor volumes, body weight of animals is monitored twice weekly for up to 3 weeks.

HCT116 tumor = test: In vivo solid tumor disease model, HCT116; design: species or system mice; conditions: HCT116, 20 mg/kg orally daily, 13 days

## COCCNCc1cccc(-c2cc3nccc(Oc4ccc(NC(=O)C5(C(=O)Nc6ccc(F)cc6)CC5)cc4F)c3s2)n1
U87MG tumor; 312 h, 13 days
  inhibition in vivo at 20 mg/kg: ≥ 75%

## COCCNCc1ccc(-c2cc3nccc(Oc4ccc(NC(=O)Nc5cc(C)on5)c(OC)c4)c3s2)nc1
SKLMS40 tumor; 360 h, 15 days
  inhibition in vivo at 20 mg/kg: ≥ 75%

## COCCNCc1cnc(-c2cc3nccc(Oc4ccc(NC(=S)NC(=O)Cc5ccccc5)cc4F)c3s2)n1C [drawing 371]
MKN45 tumor; 312 h, 13 days
  inhibition in vivo at 20 mg/kg: 50 to 75%
SKLMS40 tumor; 312 h, 13 days
  inhibition in vivo at 20 mg/kg: < 25%
A549 tumor
  Tumor Growth Inhibition (%): B (tumor growth inhibition of ≧25% but <50%)

## COCCNCc1ccc(-c2cc3nccc(Oc4ccc(NC(=O)NNC(=O)c5ccccc5)cc4F)c3s2)nc1
Panc-1 tumor
  Tumor Growth Inhibition (%): A (tumor growth inhibition of less than 25%)

## COCCNCc1ccc(-c2cc3nccc(Oc4ccc(NC(=O)C5(C(=O)Nc6ccc(F)cc6)CC5)cc4F)c3s2)nc1 [drawing 376]
MDAMB231 tumor
  Tumor Growth Inhibition (%): D D D (tumor growth inhibition of ≧75%)
SKLMS40 tumor; 312 h, 13 days
  inhibition in vivo at 20 mg/kg: ≥ 75%
U87MG tumor; 288 h, 12 days
  inhibition in vivo at 20 mg/kg: ≥ 75%

## CS(=O)(=O)CCNCc1ccc(-c2cc3nccc(Oc4ccc(NC(=O)C5(C(=O)Nc6ccccc6)CC5)cc4F)c3s2)cc1 [drawing 370]
U87MG tumor; 240 h, 10 days
  inhibition in vivo at 20 mg/kg: 50 to 75%

## COCCNCc1ccc(-c2cc3nccc(Oc4ccc(NC(=O)CC(=O)N(C)c5ccc(F)cc5)cc4F)c3s2)nc1 [drawing 375]
MKN45 tumor; 312 h, 13 days
  inhibition in vivo at 20 mg/kg: 25 to 50%
A549 tumor
  Tumor Growth Inhibition (%): A (tumor growth inhibition of less than 25%)

## COCCNCc1ccc(-c2cc3nccc(Oc4ccc(NC(=O)C5(C(=O)Nc6ccccc6)CC5)cc4F)c3s2)nc1 [drawing 374]
MKN45 tumor; 312 h, 13 days
  inhibition in vivo at 20 mg/kg: ≥ 75%
SKLMS40 tumor; 312 h, 13 days
  inhibition in vivo at 20 mg/kg: 50 to 75%
U87MG tumor; 288 h, 12 days
  inhibition in vivo at 20 mg/kg: ≥ 75%
A549 tumor
  Tumor Growth Inhibition (%): C (tumor growth inhibition of ≧50% but <75%)

## COCCNCc1ccc(-c2cc3nccc(Oc4ccc(NC(=O)C5(C(=O)Nc6ccc(F)cc6)CC5)c(OC)c4)c3s2)nc1
SKLMS40 tumor; 360 h, 15 days
  inhibition in vivo at 20 mg/kg: 25 to 50%

## COCCNCc1ccc(-c2cc3nccc(Oc4ccc(NC(=O)C5(C(=O)Nc6ccc(F)cc6)CC5)cc4F)c3s2)o1
Panc-1 tumor
  Tumor Growth Inhibition (%): D (tumor growth inhibition of ≧75%)

## COCCNCc1ccc(-c2cc3nccc(Oc4ccc(NC(=S)NC(=O)Cc5ccc(F)cc5)c(F)c4)c3s2)nc1
H1437 tumor
  Tumor Growth Inhibition (%): A (tumor growth inhibition of less than 25%)

## COCCNCc1cccc(-c2cc3nccc(Oc4ccc(NC(=S)NC(=O)Cc5ccc(F)cc5)cc4F)c3s2)c1 [drawing 360]
MKN45 tumor; 168 h, 7 days
  inhibition in vivo at 20 mg/kg: 50 to 75%
MNNG HOS tumor
  Tumor Growth Inhibition (%): A (tumor growth inhibition of less than 25%)

## COCCNCc1ccc(-c2cc3nccc(Oc4ccc(NC(=O)CC(=O)N(C)c5ccccc5)cc4F)c3s2)nc1 [drawing 373]
MKN45 tumor; 312 h, 13 days
  inhibition in vivo at 20 mg/kg: 50 to 75%
SKLMS40 tumor; 312 h, 13 days
  inhibition in vivo at 20 mg/kg: < 25%
U87MG tumor; 288 h, 12 days
  inhibition in vivo at 20 mg/kg: 25 to 50%
A549 tumor
  Tumor Growth Inhibition (%): C (tumor growth inhibition of ≧50% but <75%)

## COCCNCCn1cnc(-c2cc3nccc(Oc4ccc(NC(=S)NC(=O)Cc5ccc(F)cc5)cc4F)c3s2)c1 [drawing 366]
U87MG tumor; 288 h, 12 days
  inhibition in vivo at 20 mg/kg: < 25%

## COCCNCc1ccc(-c2cc3nccc(Oc4ccc(NC(=S)NC(=O)Cc5ccc(F)cc5)c(OC)c4)c3s2)nc1
SKLMS40 tumor; 360 h, 15 days
  inhibition in vivo at 20 mg/kg: 25 to 50%

## COCCNCc1cnc(-c2cc3nccc(Oc4ccc(NC(=O)CC(=O)Nc5ccccc5)cc4F)c3s2)n1C [13(49), N^1-(3-Fluoro-4-(2-(5-((2-methoxyethylamino)methyl)-1-methyl-1H-imidazol-2-yl)thieno[3,2-b]pyridin-7-yloxy)phenyl)-N^3-phenylmalonamide]
CNV progression
  % Inhibition of CNV Progression: A (greater than or equal to 30% inhibition)

## COCCNCc1ccc(-c2cc3nccc(Oc4ccc(NC(=O)C5(C(=O)Nc6ccccc6)CC5)cc4F)c3s2)o1 [drawing 368]
SKLMS40 tumor; 312 h, 13 days
  inhibition in vivo at 20 mg/kg: 50 to 75%

## COCCNCc1ccc(-c2cc3nccc(Oc4ccc(NC(=O)Nc5coc(C)c5)cc4F)c3s2)nc1
Panc-1 tumor
  Tumor Growth Inhibition (%): D D D (tumor growth inhibition of ≧75%)
U87MG tumor; 312 h, 13 days
  inhibition in vivo at 20 mg/kg: ≥ 75%
SKLMS tumor
  Tumor Growth Inhibition (%): D D D (tumor growth inhibition of ≧75%)

## COCCNCc1ccc(-c2cc3nccc(Oc4ccc(NC(=O)Nc5cc(C(C)(C)C)on5)cc4F)c3s2)nc1 [145(252), 1-(5-tert-butylisoxazol-3-yl)-3-(3-fluoro-4-(2-(5-((2-methoxyethylamino)methyl)pyridin-2-yl)thieno[3,2-b]pyridin-7-yloxy)phenyl)urea]
CNV progression
  % Inhibition of CNV Progression: B (≧10% to <30% inhibition)

## COCCNCc1ccc(-c2cc3nccc(Oc4ccc(NC(=O)Nc5cc(C(F)(F)F)ccc5F)cc4F)c3s2)nc1 [146(253), 1-(3-fluoro-4-(2-(5-((2-methoxyethylamino)methyl)pyridin-2-yl)thieno[3,2-b]pyridin-7-yloxy)phenyl)-3-(2-fluoro-5-(trifluoromethyl)phenyl)urea]
CNV progression
  % Inhibition of CNV Progression: A (greater than or equal to 30% inhibition)

## COCCNCCn1cc(-c2cc3nccc(Oc4ccc(NC(=S)NC(=O)Cc5ccccc5)cc4F)c3s2)cn1 [drawing 367]
U87MG tumor; 240 h, 10 days
  inhibition in vivo at 20 mg/kg: 25 to 50%

## COCCNCc1ccc(-c2cc3nccc(Oc4ccc(NC(=O)Nc5cc(C(C)(C)C)on5)cc4F)c3s2)nc1 [drawing 379]
HCT116 tumor
  Tumor Growth Inhibition (%): C (tumor growth inhibition of ≧50% but <75%)
